System: MPNST complex spheroid with HUVEC/MSC, growth, % test/control
Test: Anticancer human tumor MPNST cell line growth inhibition [Asc];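 note: compounds left on spheroids for seven days before reading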
Settings: for IC50: curve of first compound; for viability, T/C: stronger effect = lower value
Summary of the method: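 Stromal components (HUVEC and hMSC) are co-assembled with the cancer cells into multicellular spheroids. Drugs are then added singly or paired, at concentrations falling by half-log increments from a clinically achievable maximum, capped at 10 microM without known Cmax.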

C=C(F)C(=O)N1CCN(c2nc(OCC3CCCN3C)nc3c2CCN(c2cccc4cccc(Cl)c24)C3)CC1CC#N (stereo not given) + Cc1c(S(C)(=O)=O)c(-c2cc(F)cc(N3CCN(c4ccc(NS(=O)(=O)c5ccc(NC(CCN6CCC(C(=O)OCCCP(=O)(O)O)CC6)CSc6ccccc6)c(S(=O)(=O)C(F)(F)F)c5)cc4)CC3)c2)c(-c2ccc(Cl)cc2)n1C(C)C
IC50 (second compound 0.1 µM): > 10 µM
IC50 (second compound 0.316 µM): 3.72 µM
IC50 (second compound 1 µM): 2.88 µM
IC50 (second compound 3.16 µM): 1.98 µM
IC50 (second compound 10 µM): 3.3 µM
viability, T/C (second compound 0.1 µM, first compound 0.0316 µM): 65.5%
viability, T/C (second compound 0.1 µM, first compound 0.1 µM): 66.2%
viability, T/C (second compound 0.1 µM, first compound 0.316 µM): 69.8%
viability, T/C (second compound 0.1 µM, first compound 1 µM): 81.1%
viability, T/C (second compound 0.1 µM, first compound 3.16 µM): 74.7%
viability, T/C (second compound 0.1 µM, first compound 10 µM): 51.3%
viability, T/C (second compound 0.316 µM, first compound 0.0316 µM): 67.2%
viability, T/C (second compound 0.316 µM, first compound 0.1 µM): 61.1%
viability, T/C (second compound 0.316 µM, first compound 0.316 µM): 69.6%
viability, T/C (second compound 0.316 µM, first compound 1 µM): 58%
viability, T/C (second compound 0.316 µM, first compound 3.16 µM): 52.4%
viability, T/C (second compound 0.316 µM, first compound 10 µM): 36.2%
viability, T/C (second compound 1 µM, first compound 0.0316 µM): 73.5%
viability, T/C (second compound 1 µM, first compound 0.1 µM): 75.4%
viability, T/C (second compound 1 µM, first compound 0.316 µM): 67.6%
viability, T/C (second compound 1 µM, first compound 1 µM): 53.9%
viability, T/C (second compound 1 µM, first compound 3.16 µM): 53.5%
viability, T/C (second compound 1 µM, first compound 10 µM): 41.1%
viability, T/C (second compound 3.16 µM, first compound 0.0316 µM): 78.2%
viability, T/C (second compound 3.16 µM, first compound 0.1 µM): 70%
viability, T/C (second compound 3.16 µM, first compound 0.316 µM): 64.5%
viability, T/C (second compound 3.16 µM, first compound 1 µM): 57.3%
viability, T/C (second compound 3.16 µM, first compound 3.16 µM): 46.2%
viability, T/C (second compound 3.16 µM, first compound 10 µM): 32.7%
viability, T/C (second compound 10 µM, first compound 0.0316 µM): 53.5%
viability, T/C (second compound 10 µM, first compound 0.1 µM): 65.8%
viability, T/C (second compound 10 µM, first compound 0.316 µM): 71.2%
viability, T/C (second compound 10 µM, first compound 1 µM): 64.4%
viability, T/C (second compound 10 µM, first compound 3.16 µM): 50.8%
viability, T/C (second compound 10 µM, first compound 10 µM): 30.3%

CCN1C(C(=O)NC23CCC(C(=O)O)(CC2)CC3)C(c2cccc(Cl)c2F)C2(C(=O)Nc3cc(Cl)ccc32)C12CCCCC2 (stereo not given) + Cc1c(S(C)(=O)=O)c(-c2cc(F)cc(N3CCN(c4ccc(NS(=O)(=O)c5ccc(NC(CCN6CCC(C(=O)OCCCP(=O)(O)O)CC6)CSc6ccccc6)c(S(=O)(=O)C(F)(F)F)c5)cc4)CC3)c2)c(-c2ccc(Cl)cc2)n1C(C)C
IC50 (second compound 0.1 µM): > 3 µM
IC50 (second compound 0.316 µM): > 3 µM
IC50 (second compound 1 µM): > 3 µM
IC50 (second compound 3.16 µM): > 3 µM
IC50 (second compound 10 µM): > 3 µM
viability, T/C (second compound 0.1 µM, first compound 0.00949 µM): 66.3%
viability, T/C (second compound 0.1 µM, first compound 0.03 µM): 92.1%
viability, T/C (second compound 0.1 µM, first compound 0.0949 µM): 78.6%
viability, T/C (second compound 0.1 µM, first compound 0.3 µM): 69.6%
viability, T/C (second compound 0.1 µM, first compound 0.949 µM): 82.5%
viability, T/C (second compound 0.1 µM, first compound 3 µM): 58.6%
viability, T/C (second compound 0.316 µM, first compound 0.00949 µM): 84%
viability, T/C (second compound 0.316 µM, first compound 0.03 µM): 76.4%
viability, T/C (second compound 0.316 µM, first compound 0.0949 µM): 75.2%
viability, T/C (second compound 0.316 µM, first compound 0.3 µM): 66.9%
viability, T/C (second compound 0.316 µM, first compound 0.949 µM): 58.5%
viability, T/C (second compound 0.316 µM, first compound 3 µM): 60.3%
viability, T/C (second compound 1 µM, first compound 0.00949 µM): 83.1%
viability, T/C (second compound 1 µM, first compound 0.03 µM): 77.6%
viability, T/C (second compound 1 µM, first compound 0.0949 µM): 78.9%
viability, T/C (second compound 1 µM, first compound 0.3 µM): 66.6%
viability, T/C (second compound 1 µM, first compound 0.949 µM): 58.8%
viability, T/C (second compound 1 µM, first compound 3 µM): 63%
viability, T/C (second compound 3.16 µM, first compound 0.00949 µM): 77.9%
viability, T/C (second compound 3.16 µM, first compound 0.03 µM): 69.7%
viability, T/C (second compound 3.16 µM, first compound 0.0949 µM): 92.9%
viability, T/C (second compound 3.16 µM, first compound 0.3 µM): 59.1%
viability, T/C (second compound 3.16 µM, first compound 0.949 µM): 61.6%
viability, T/C (second compound 3.16 µM, first compound 3 µM): 56.7%
viability, T/C (second compound 10 µM, first compound 0.00949 µM): 85.9%
viability, T/C (second compound 10 µM, first compound 0.03 µM): 82.3%
viability, T/C (second compound 10 µM, first compound 0.0949 µM): 75.4%
viability, T/C (second compound 10 µM, first compound 0.3 µM): 68.8%
viability, T/C (second compound 10 µM, first compound 0.949 µM): 56.5%
viability, T/C (second compound 10 µM, first compound 3 µM): 58.3%

Reference: PubChem BioAssay AID1963442 (Molecular Pharmacology Branch, DTP, NCI, 2024)
